{
  "source": "paper PMC7954794",
  "about": "“Protein context shapes the specificity of SH3 domain-mediated interactions in vivo” (Nature Communications, 2021)",
  "key": {"[1]": {"test_system": "PPIs identified as affected by the SH3 domain deletions", "assay": "Liquid DHFR-PCA low-throughput validation of PPIs affected by SH3 deletion (Fig. S1D-E)", "assay_type": "cell-based, Saccharomyces cerevisiae", "conditions": "label = prey, liquid DHFR-PCA, prey _1 = lost, _2 = gained in screen", "protocol": "Liquid DHFR-PCA low-throughput experiments were performed to validate the PPIs identified as affected by the SH3 domain deletions in the high-throughput solid DHFR-PCA screen (256 PPIs weaker or lost and 116 PPIs stronger or gained following domain deletions). Mating and the diploid selection were performed as described for the large-scale experiment, with the exception that the plates were in 384 formats. Following the second diploid selection, diploid cells were inoculated in a 96 v-shaped well plate using a robotically manipulated 96 pin tool in a synthetic complete medium with MSG at pH 6.0 with NAT and HPH. After 48 h of growth, optical density (OD) was read using a TECAN Infinite F200 Pro, and dilutions to 1 OD in sterile nanopure water were prepared. Cells were then diluted to 0.1 OD by combining 25 µl of cell suspension at OD = 1 and 225 µl of PCA selection media without agar in a 96-wells plate. Plates were incubated at 30 °C in a TECAN Infinite M Nano and OD was monitored each 15 min for 72 h."}, "ABP1": {"test_system": "ABP1", "assay": "DHFR-PCA on solid medium, bait ABP1 (Fig. 1B)", "assay_type": "cell-based, Saccharomyces cerevisiae", "conditions": "bait ABP1, label = prey; for medrep (log2 median colony size normalized to plate background, PCA score): 2-4 replicates", "text": "Supplement 41467_2021_21873_MOESM8_ESM.xlsx, sheet \"Fig1B\" | column: medsize; medrep; Ratio; Score"}},
  "data": [
    {"substance": "YAL005C_2", "values": [
      {"measurement": "Ratio (Deletedscore / WTscore)", "setting": "[1]; bait BOI1", "result": 0.8346},
      {"measurement": "Ratio (Deletedscore / WTscore)", "setting": "[1]; bait CYK3", "result": 1.208},
      {"measurement": "Ratio (Deletedscore / WTscore)", "setting": "[1]; bait HOF1", "result": 1.323},
      {"measurement": "Ratio (Deletedscore / WTscore)", "setting": "[1]; bait", "result": 1.478}
    ]},
    {"substance": "YBL017C_2", "values": [
      {"measurement": "Ratio (Deletedscore / WTscore)", "setting": "[1]; bait ABP1", "result": 1.35},
      {"measurement": "Ratio (Deletedscore / WTscore)", "setting": "[1]; bait LSB3", "result": 1.844}
    ]},
    {"substance": "YBR109C_1", "values": [
      {"measurement": "Ratio (Deletedscore / WTscore)", "setting": "[1]; bait MYO5", "result": 0.9988}
    ]},
    {"substance": "YBR234C_1", "values": [
      {"measurement": "Ratio (Deletedscore / WTscore)", "setting": "[1]; bait BUD14", "result": 0.744}
    ]},
    {"substance": "YDL229W_1", "values": [
      {"measurement": "Ratio (Deletedscore / WTscore)", "setting": "[1]; bait CDC25", "result": 0.6311}
    ]},
    {"substance": "YDL229W_2", "values": [
      {"measurement": "Ratio (Deletedscore / WTscore)", "setting": "[1]; bait BOI1", "result": 1.5}
    ]},
    {"substance": "YDR170C", "values": [
      {"measurement": "medrep (log2 median colony size normalized to plate background, PCA score)", "setting": "ABP1", "result": 2.657},
      {"measurement": "Ratio (SH3-deleted/WT medrep)", "setting": "ABP1; only significant differences showed, PPIs completely lost have a ratio of 0.1 and the gained PPIs 2.5", "result": 1.547}
    ]},
    {"substance": "YDR170C_1", "values": [
      {"measurement": "Ratio (Deletedscore / WTscore)", "setting": "[1]; bait RVS167", "result": 0.751}
    ]},
    {"substance": "YDR170C_2", "values": [
      {"measurement": "Ratio (Deletedscore / WTscore)", "setting": "[1]; bait ABP1", "result": 1.267},
      {"measurement": "Ratio (Deletedscore / WTscore)", "setting": "[1]; bait LSB3", "result": 1.852}
    ]},
    {"substance": "YDR265W_2", "values": [
      {"measurement": "Ratio (Deletedscore / WTscore)", "setting": "[1]; bait BEM1-1", "result": 1.494},
      {"measurement": "Ratio (Deletedscore / WTscore)", "setting": "[1]; bait", "result": 1.155}
    ]},
    {"substance": "YER155C_1", "values": [
      {"measurement": "Ratio (Deletedscore / WTscore)", "setting": "[1]; bait BOI1", "result": 0.8689},
      {"measurement": "Ratio (Deletedscore / WTscore)", "setting": "[1]; bait BOI2", "result": 0.775},
      {"measurement": "Ratio (Deletedscore / WTscore)", "setting": "[1]; bait BUD14", "result": 0.7098}
    ]},
    {"substance": "YER166W_1", "values": [
      {"measurement": "Ratio (Deletedscore / WTscore)", "setting": "[1]; bait RVS167", "result": 0.4913}
    ]},
    {"substance": "YGL206C_1", "values": [
      {"measurement": "Ratio (Deletedscore / WTscore)", "setting": "[1]; bait BBC1", "result": 0.7295},
      {"measurement": "Ratio (Deletedscore / WTscore)", "setting": "[1]; bait BOI1", "result": 1.003},
      {"measurement": "Ratio (Deletedscore / WTscore)", "setting": "[1]; bait HOF1", "result": 0.9141}
    ]},
    {"substance": "YGL206C_2", "values": [
      {"measurement": "Ratio (Deletedscore / WTscore)", "setting": "[1]; bait BEM1-2", "result": 1.078},
      {"measurement": "Ratio (Deletedscore / WTscore)", "setting": "[1]; bait BZZ1-1", "result": 0.8702},
      {"measurement": "Ratio (Deletedscore / WTscore)", "setting": "[1]; bait BZZ1-2", "result": 1.646}
    ]},
    {"substance": "YIL062C_1", "values": [
      {"measurement": "Ratio (Deletedscore / WTscore)", "setting": "[1]; bait BZZ1-1", "result": 0.7418}
    ]},
    {"substance": "YIL062C_2", "values": [
      {"measurement": "Ratio (Deletedscore / WTscore)", "setting": "[1]; bait HSE1", "result": 1.213}
    ]},
    {"substance": "YKL013C_1", "values": [
      {"measurement": "Ratio (Deletedscore / WTscore)", "setting": "[1]; bait BZZ1-1", "result": 0.9908},
      {"measurement": "Ratio (Deletedscore / WTscore)", "setting": "[1]; bait BZZ1-2", "result": 1.121},
      {"measurement": "Ratio (Deletedscore / WTscore)", "setting": "[1]; bait MYO5", "result": 0.8543}
    ]},
    {"substance": "YLL040C_1", "values": [
      {"measurement": "Ratio (Deletedscore / WTscore)", "setting": "[1]; bait LSB3", "result": 0.505}
    ]},
    {"substance": "YLR370C_1", "values": [
      {"measurement": "Ratio (Deletedscore / WTscore)", "setting": "[1]; bait BZZ1-1", "result": 0.6354}
    ]},
    {"substance": "YOR181W_1", "values": [
      {"measurement": "Ratio (Deletedscore / WTscore)", "setting": "[1]; bait BBC1", "result": 0.634},
      {"measurement": "Ratio (Deletedscore / WTscore)", "setting": "[1]; bait LSB1", "result": 0.5295},
      {"measurement": "Ratio (Deletedscore / WTscore)", "setting": "[1]; bait LSB3", "result": 0.6909},
      {"measurement": "Ratio (Deletedscore / WTscore)", "setting": "[1]; bait MYO3", "result": 0.5123},
      {"measurement": "Ratio (Deletedscore / WTscore)", "setting": "[1]; bait MYO5", "result": 0.7615},
      {"measurement": "Ratio (Deletedscore / WTscore)", "setting": "[1]; bait PIN3", "result": 0.5418}
    ]},
    {"substance": "YPR154W (EYVEALYQFDPQQDGDLGLKPGDKVQLLEKLSPEWYKGSCNGRTGIFPANYVKPAF)", "values": [
      {"measurement": "medrep (log2 median colony size normalized to plate background, PCA score)", "setting": "ABP1", "result": 1.556}
    ]},
    {"substance": "YPR184W_2", "values": [
      {"measurement": "Ratio (Deletedscore / WTscore)", "setting": "[1]; bait LSB3", "result": 1.832}
    ]}
  ]
}
